The results in this text go back to patent US8546443B2, “Benzylic oxindole pyrimidines” (Boehringer Ingelheim International GmbH, priority 2010, dated 2013).

Molecules are shown by their SMILES. Bounds are passed on as bounds.

Experiment [1] deals with T1, cytoplasmic kinase domain of human IGF-1R (IGF-1R-GST) (Homo sapiens, UniProt P08069).
T1 construct: cytoplasmic kinase domain of human IGF-1R (amino acids 964-1370); GST (glutathione-S-transferase); made in house; host or cells: High Five insect cells (Invitrogen)
T1 sequence (P08069 964-1367 limits assumed): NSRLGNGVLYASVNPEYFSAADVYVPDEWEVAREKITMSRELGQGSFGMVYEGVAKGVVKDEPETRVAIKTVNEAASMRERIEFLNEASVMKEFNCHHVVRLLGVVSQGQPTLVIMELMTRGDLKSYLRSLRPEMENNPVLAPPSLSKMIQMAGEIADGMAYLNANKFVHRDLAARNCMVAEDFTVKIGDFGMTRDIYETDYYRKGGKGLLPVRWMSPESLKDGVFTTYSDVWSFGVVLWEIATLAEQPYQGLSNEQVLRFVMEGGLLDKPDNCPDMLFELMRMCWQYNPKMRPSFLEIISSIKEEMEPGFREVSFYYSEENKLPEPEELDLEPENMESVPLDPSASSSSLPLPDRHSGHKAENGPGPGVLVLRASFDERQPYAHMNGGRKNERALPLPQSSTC
As to the kind of experiment: Insulin-like growth factor-1 receptor (IGF-1R) kinase assay (DELFIA). Type of experiment: biochemical. The note with it: IGF-1R-GST kinase activity, read-out: IGF1R IC50. In a few lines: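 GST-tagged IGF-1R cytoplasmic kinase domain phosphorylates pEY with biotinylated pEY for 40 min at RT; EDTA stop. Product captured on streptavidin, detected with europium anti-phosphotyrosine antibody by DELFIA time-resolved fluorescence; IC50 from inhibition curves.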

In experiment [2] the test system is TC-71 (Ewing's sarcoma) cells. As to the kind of experiment: Cell proliferation assay, TC-71 (Alamar Blue). In kind it is cell-based. The settings on record: 72 h with compound, EC50 ranges as class symbols. As for the experimental part:
Cell Proliferation Assays
Compounds were tested for their anti-proliferative effects in the TC-71 (Ewing's sarcoma) and HCT 116 (colorectal carcinoma) cancer cell lines in vitro. Published scientific data has described that interference with the Insulin-like Growth Factor-1 Receptor (IGF-1R) signaling pathway reduces the proliferation of TC-71 cells. Therefore TC-71 cells served as a positive control cell line for monitoring the activity of compounds against IGF-1R-mediated cell proliferation. […] Therefore the HCT 116 cell line served as a negative control.
2000 TC-71 cells or 1000 HCT 116 cells were seeded per well in 180 μL IMDM+10% foetal calf serum (FCS)+ penicillin/streptomycin into 96-well microtitre plates. The plates were placed in a cell culture incubator (37° C. in a humidified atmosphere of […]/5 CO2) overnight. The following day, serial dilutions of compounds, prepared in duplicates, were transferred onto the cell layers (controls without compound). The cells were cultivated for a further 72 h in the cell culture incubator. 20 μL of Alamar Blue™ (Serotec Ltd, Düsseldorf, Germany) was added to each well and the plates incubated for 7 h in the cell culture incubator. Fluorescence (extinction wavelength of 544 nm and emission at 590 nm) was then measured and the normalized data fitted by iterative calculation with a sigmoidal curve analysis program (Graph Pad Prism) with a variable Hill slope to determine the IC50 values.
Background: The colour change of resazurin is a common sign of viable cells or microbes.

With `Cc1cc(C2CCN(C(=O)N(C)C)CC2)ccc1Nc1ncc(Cl)c(NCc2cccc3c2C(C)(C)C(=O)N3)n1` [Example I-67], the IC50 (in general, the concentration at which inhibition is half-maximal) in experiment [1] was 15 nM. Further, the EC50 (commonly the concentration giving half of the maximal effect) in experiment [2] fell in the range of 50 to 250 nM.

As to `COCCN1CCC(c2ccc(Nc3ncc(C(F)(F)F)c(NCc4cccc5c4C(C)(C)C(=O)N5)n3)c(C)c2)CC1` [Example I-352], in experiment [1], the IC50 amounted to 0.8 nM. Besides, the EC50 in experiment [2] is under 50 nM.

Take `Cc1cc(Nc2ncc(Cl)c(NCc3cccc4c3C(C)(C)C(=O)N4)n2)ccc1C1CCN(CC(C)(C)O)CC1` [Example I-334]: the IC50 in experiment [1] came out at 0.4 nM. Further, the EC50 in experiment [2] is under 50 nM.

Consider `Cc1cc(C2CCCN(CC(O)C(F)(F)F)C2)ccc1Nc1ncc(Br)c(NCc2cccc3c2C(C)(C)C(=O)N3)n1` (racemic) [Example I-316], for which, in experiment [1], the IC50 was 2 nM. Besides, in experiment [2], the EC50 is 50 to 250 nM.

As to `Cc1cc(Nc2ncc(C(F)(F)F)c(NCc3cccc4c3C(C)(C)C(=O)N4)n2)ccc1C1CCN(CC(C)(C)O)CC1` [Example I-303], the IC50 in experiment [1] was determined as 0.2 nM. The EC50 in experiment [2] is under 50 nM.

On to `CC1(C)C(=O)Nc2cccc(CNc3nc(Nc4ccc(C5CCCN(CCO)C5)cc4)ncc3Cl)c21` (racemic) [Example I-381], for which the IC50 in experiment [1] stood at 0.9 nM. Moreover, the EC50 in experiment [2] is 50 to 250 nM.

For the compound `CC1(C)C(=O)Nc2cccc(CNc3nc(Nc4ccc(C5CCN(C(=O)C6CCN6)CC5)cc4)ncc3Br)c21` (stereo not shown) [Example I-56], the IC50 in experiment [1] was determined as 2 nM. Besides, the EC50 in experiment [2] is 250 to 3000 nM.

Regarding `Cc1cc(C2CCN(CC(C)(C)O)CC2)ccc1Nc1ncc(Cl)c(NCc2cccc3c2C(C)(C)C(=O)N3)n1` [Example I-377], the IC50 in experiment [1] worked out at 0.9 nM. The EC50 in experiment [2] is under 50 nM.

Regarding `CCc1cc(C2CCCN(CCOC)C2)ccc1Nc1ncc(Cl)c(NCc2cccc3c2C(C)(C)C(=O)N3)n1` (racemic) [Example I-384], the IC50 in experiment [1] amounted to 6 nM. For the same compound, in experiment [2], the EC50 lay in the range of 50 to 250 nM.

As to `CC(C)(O)C(=O)N1CCC(c2ccc(Nc3ncc(Br)c(NCc4cccc5c4C(C)(C)C(=O)N5)n3)cc2)CC1` [Example I-54], the IC50 in experiment [1] came out at 7 nM. Moreover, the EC50 in experiment [2] fell in the range of 50 to 250 nM.

As for `CC1(C)C(=O)Nc2cccc(CNc3nc(Nc4ccc(C5CCN(C(=O)C6CCCN6)CC5)cc4)ncc3Br)c21` (stereo not shown) [Example I-55], the IC50 in experiment [1] stood at 1 nM. Moreover, in experiment [2], the EC50 fell in the range of 50 to 250 nM.

In the case of `CC(C)(O)CN1CCC(c2ccc(Nc3ncc(Cl)c(NCc4cccc5c4C(C)(C)C(=O)N5)n3)c(OC(F)(F)F)c2)CC1` [Example I-340], the IC50 in experiment [1] amounted to 11 nM. For the same compound, the EC50 in experiment [2] lay within 50 to 250 nM.

For `Cc1cc(C2CCN(C)CC2)ccc1Nc1ncc(C(F)(F)F)c(NCc2cccc3c2C(C)(C)C(=O)N3)n1` [Example I-308], the IC50 in experiment [1] is 0.8 nM. Further, the EC50 in experiment [2] was under 50 nM.

Take `Cc1cc(C2CCN(CC(C)(C)O)CC2)c(C)cc1Nc1ncc(C(F)(F)F)c(NCc2cccc3c2C(C)(C)C(=O)N3)n1` [Example I-312]: the IC50 in experiment [1] turned out to be 27 nM. Further, in experiment [2], the EC50 was in the range of 50 to 250 nM.

For `CC1(C)C(=O)Nc2cccc(CNc3nc(Nc4ccc(C5CCCN(CC(O)C(F)(F)F)C5)cc4)ncc3Br)c21` (racemic) [Example I-325], in experiment [1], the IC50 worked out at 2 nM. Also, the EC50 in experiment [2] is 50 to 250 nM.

In the case of `COc1cc(N2CCN(C)CC2)ccc1Nc1ncc(C(F)(F)F)c(NCc2cccc3c2C(C)(C)C(=O)N3)n1` [Example I-104], in experiment [1], the IC50 was 0.1 nM. The EC50 in experiment [2] was under 50 nM.

Turning to `Cc1cc(N2CCN(CC(C)(C)O)CC2)ccc1Nc1ncc(Br)c(NCc2cccc3c2C(C)(C)C(=O)N3)n1` [Example I-317], the IC50 in experiment [1] was 6 nM. The EC50 in experiment [2] is under 50 nM.

For `Cc1cc(Nc2ncc(C(F)(F)F)c(NCc3cccc4c3C(C)(C)C(=O)N4)n2)c(F)cc1C1CCN(CC(C)(C)O)CC1` [Example I-311], in experiment [1], the IC50 came to 15 nM. Also, the EC50 in experiment [2] lay in the range of 50 to 250 nM.

On to `COCCN1CCCC(c2ccc(Nc3ncc(Cl)c(NCc4cccc5c4C(C)(C)C(=O)N5)n3)cc2)C1` (racemic) [Example I-380], for which, in experiment [1], the IC50 is 2 nM. For the same compound, in experiment [2], the EC50 lay in the range of 50 to 250 nM.

Turning to `CNC(=O)CN1CCCC(c2ccc(Nc3ncc(Br)c(NCc4cccc5c4C(C)(C)C(=O)N5)n3)cc2)C1` (racemic) [Example I-365], in experiment [1], the IC50 is 1 nM. The EC50 in experiment [2] was in the range of 50 to 250 nM.

As to `CC1(C)C(=O)Nc2cccc(CNc3nc(Nc4ccc(C5CCN(CCO)CC5)cc4)ncc3Br)c21` [Example I-209], the IC50 in experiment [1] is 1 nM. The EC50 in experiment [2] lay within 50 to 250 nM.

Turning to `COc1cc(C2CCN(CC(C)(C)O)CC2)ccc1Nc1ncc(Br)c(NCc2cccc3c2C(C)(C)C(=O)N3)n1` [Example I-323], the IC50 in experiment [1] worked out at 0.9 nM. Further, the EC50 in experiment [2] is under 50 nM.

Take `COc1cc(C2CCCN(CCO)C2)ccc1Nc1ncc(C(F)(F)F)c(NCc2cccc3c2C(C)(C)C(=O)N3)n1` (racemic) [Example I-351]: the IC50 in experiment [1] amounted to 0.5 nM. Further, the EC50 in experiment [2] was under 50 nM.

`CC1(C)C(=O)Nc2cccc(CNc3nc(Nc4ccc(C5CCCNC5)cc4)ncc3Br)c21` (racemic) [Example I-238]: in experiment [1], the IC50 came to 1 nM. Besides, in experiment [2], the EC50 was in the range of 50 to 250 nM.

Turning to `Cc1cc(C2CCN(C(=O)CO)CC2)ccc1Nc1ncc(Cl)c(NCc2cccc3c2C(C)(C)C(=O)N3)n1` [Example I-298], the IC50 in experiment [1] came to 7 nM. The EC50 in experiment [2] was 50 to 250 nM.

Regarding `COc1cc(N2CCN(CC(C)(C)O)CC2)ccc1Nc1ncc(Br)c(NCc2cccc3c2C(C)(C)C(=O)N3)n1` [Example I-321], in experiment [1], the IC50 was determined as 2 nM. In addition, in experiment [2], the EC50 was under 50 nM.

As to `COCCN1CCN(c2ccc(Nc3ncc(Br)c(NCc4cccc5c4C(C)(C)C(=O)N5)n3)c(OC)c2)CC1` [Example I-369], the IC50 in experiment [1] stood at 2 nM. Also, the EC50 in experiment [2] is under 50 nM.

In the case of `CNC(=O)CN1CCCC(c2ccc(Nc3ncc(Cl)c(NCc4cccc5c4C(C)(C)C(=O)N5)n3)cc2)C1` (racemic) [Example I-379], the half-maximal inhibitory concentration (IC50) in experiment [1] was 6 nM. For the same compound, the EC50 in experiment [2] is 50 to 250 nM.

Consider `COCCN1CCN(c2ccc(Nc3ncc(C(F)(F)F)c(NCc4cccc5c4C(C)(C)C(=O)N5)n3)c(OC)c2)CC1` [Example I-353], for which, in experiment [1], the IC50 is 2 nM. For the same compound, the EC50 in experiment [2] was under 50 nM.

For `COc1cc(C2CCCN(CC(C)(C)O)C2)ccc1Nc1ncc(Cl)c(NCc2cccc3c2C(C)(C)C(=O)N3)n1` (racemic) [Example I-327], the half-inhibitory concentration (IC50) in experiment [1] worked out at 1 nM. Further, in experiment [2], the EC50 was under 50 nM.

As for `Cc1cc(C2CCN(CCO)CC2)ccc1Nc1ncc(C(F)(F)F)c(NCc2cccc3c2C(C)(C)C(=O)N3)n1` [Example I-355], in experiment [1], the IC50 came out at 0.5 nM. For the same compound, in experiment [2], the EC50 was 250 to 3000 nM.

Consider `COc1cc(C2CCN(C(=O)C(C)(C)O)CC2)ccc1Nc1ncc(Cl)c(NCc2cccc3c2C(C)(C)C(=O)N3)n1` [Example I-300], for which the IC50 in experiment [1] is 11 nM. The EC50 in experiment [2] is under 50 nM.

For `COc1cc(N2CCNCC2)ccc1Nc1ncc(C(F)(F)F)c(NCc2cccc3c2C(C)(C)C(=O)N3)n1` [Example I-31], the IC50 in experiment [1] is 0.7 nM. Moreover, the EC50 in experiment [2] is under 50 nM.

Consider `CCc1cc(C2CCN(CC(C)(C)O)CC2)ccc1Nc1ncc(C(F)(F)F)c(NCc2cccc3c2C(C)(C)C(=O)N3)n1` [Example I-314], for which the IC50 in experiment [1] is 5 nM. Besides, in experiment [2], the EC50 fell in the range of 50 to 250 nM.

Take `CCc1cc(C2CCN(CCOC)CC2)ccc1Nc1ncc(Cl)c(NCc2cccc3c2C(C)(C)C(=O)N3)n1` [Example I-385]: the IC50 in experiment [1] came to 4 nM. The EC50 in experiment [2] fell in the range of 50 to 250 nM.
